Experimental data taken from patent US7319109B2, “Farnesoid X receptor agonists” (Smith Kline Beecham Corporation, priority 2002, dated 2008).

Target: T1, Human FXRα Ligand Binding Domain (FXRα LBD) (Homo sapiens, UniProt Q96RI1)
T1 construct: polyhistidine (N); made in house; host or cells: E. coli BL21 (DE3), pRSET-A vector
T1 sequence (Q96RI1 222-472 isoform Q96RI1-2): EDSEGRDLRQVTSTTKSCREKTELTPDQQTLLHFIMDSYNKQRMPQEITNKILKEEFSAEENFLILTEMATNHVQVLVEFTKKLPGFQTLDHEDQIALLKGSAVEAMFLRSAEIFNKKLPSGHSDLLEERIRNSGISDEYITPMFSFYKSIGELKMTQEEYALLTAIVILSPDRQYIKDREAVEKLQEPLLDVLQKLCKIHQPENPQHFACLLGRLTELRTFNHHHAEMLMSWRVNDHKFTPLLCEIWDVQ
Test: FXR Affinity Binding Assay: ligand mediated cofactor peptide (SRC-1 LCD2, 676-700) interaction, time resolved fluorescence
Conditions: FXRα LBD-APC / europium labeled SRC-1 peptide, TRF signal, at least 2 hours at room temperature; read-out: Activity (pEC50) (converted)
Experimental: Determination of a ligand mediated cofactor peptide interaction to quantify ligand binding to the nuclear receptor Farnasoid X Receptor (FXR). The method measures the ability of putative ligands to modulate the interaction between the purified bacterial expressed FXRα (LBD) and a synthetic biotinylated peptide based on residues 676-700 of SRC-1(LCD2, 676-700). […] Detection of the associated complex is measured by time resolved fluorescence (TRF). The purified LBD of FXR is labeled with biotin then mixed with stoichiometric amounts of APC labeled streptavidin (Molecular Probes). The biotinylated peptide is then mixed with a ½ stoichiometric amount of europium labeled streptavidin (Wallac Inc). Each is then blocked with a 5 fold excess of biotin and allowed to equilibrate for 15 min. Equimolar amounts of receptor and peptide are mixed together and allowed to equilibrate for at least 30 min prior to the addition to either a variable or constant concentrations of the sample for which the affinity is to be determined. After equilibration, the time-resolved fluorescent signal is quantitated using a fluorescent plate reader. The affinity of the test compound is estimated from a plot of fluorescence versus concentration of test compound added.
Ligands that promote the complex formation induce a concentration-dependent increase in time-resolved fluorescent signal.
Human FXRα Ligand Binding Domain (FXRα LBD) was expressed in E.coli strain BL21 (DE3) as an amino-terminal polyhistidine tagged fusion protein. Expression was under the control of an IPTG inducible T7 promoter. DNA encoding this recombinant protein was subcloned into the pRSET-A expression vector (Invitrogen). The coding sequence of Human FXRα LBD was derived from Genbank accession number U 68233 (amino acids 222 to 472).
Routinely, 30-40 g cell paste (equivalent to 2-3 liters of the fermentation batch) was resuspended in 200-250 mL TBS, pH 7.2 (25mM Tris, 150 mM NaCl). Cells were lysed by passing 3 times through a French Press and cell debris was removed by centrifugation (30 minutes, 20,000 g, 4° C.). The cleared supernatant was filtered through course pre-filters, and TBS, pH 7.2, containing 500 mM imidazole was added to obtain a final imidazole concentration of 50 mM. This lysate was loaded onto a column (6×8 cm) packed with Sepharose [Ni^++ charged]Chelation resin (Pharmacia) and pre-equilibrated with TBS pH 7.21 50 mM imidazole. After washing to baseline absorbance with equilibration buffer, the column was washed with one column volume of TBS pH 7.2 containing 90 mM imidazole. FXRαLBD was eluted directly with 365 mM imidazole. Column fractions were pooled and dialyzed against TBS, pH 7.2, containing 0.5 mM EDTA and 5 mM DTT. The dialyzed protein sample was concentrated using Centri-prep 10 K (Amicon) and subjected to size exclusion, using a column (3×90 cm) packed with Sepharose S-75 resin (Pharmacia) pre-equilibrated with TBS, pH 7.2, containing 0.5 mM EDTA and 5 mM DTT.
Purified FXRα LBD was desalted/buffer exchanged using PD-10 gel filtration columns into PBS [100 mM NaPhosphate, pH 7.2, 150 mM NaCl]. FXRα LBD was diluted to approximately 10 μM in PBS and five-fold molar excess of NHS-LC-Biotin (Pierce) was added in a minimal volume of PBS. This solution was incubated with gentle mixing for 30 minutes at room temperature. The biotinylation modification reaction was stopped by the addition of 2000× molar excess of Tris-HCl, pH 8. The modified FXRα LBD was dialyzed against 4 buffer changes, each of at least 50 volumes, PBS containing 5 mM DTT, 2 mM EDTA and 2% sucrose.

| Compound | EC50 |
| --- | --- |
| Cc1cc(OCc2c(-c3ccccc3OC(F)(F)F)noc2C(C)C)ccc1N(C)S(=O)(=O)c1cccc(C(=O)O)c1 [Example 73, 3-{[[4-({5-Isopropyl-3-[2-(trifluoromethoxy)phenyl]isoxazol-4-yl}methoxy)-2-methyl-phenyl](methyl)amino]sulfonyl}benzoic acid] | 102 to 1000 nM |
| Cc1cc(OCc2c(-c3ccccc3OC(F)(F)F)noc2C(C)C)ccc1NS(=O)(=O)c1cccc(C(=O)O)c1 [Example 69, 3-({[4-({5-Isopropyl-3-[2-(trifluoromethoxy)phenyl]isoxazol-4-yl}methoxy)-2-methyl-phenyl]amino}sulfonyl)benzoic acid] | 102 to 1000 nM |
| CC(C)c1onc(-c2ccccc2OC(F)(F)F)c1COc1ccc(CNc2cccc(C(=O)O)c2)c(Cl)c1 [Example 96, 3-{[2-Chloro-4-({5-isopropyl-3-[2-(trifluoromethoxy)phenyl]-4-isoxazolyl}methoxy)benzyl]amino}benzoic acid] | 102 to 1000 nM |
| COC(=O)c1cccc(COc2ccc(OCc3c(-c4c(Cl)cccc4Cl)noc3C(C)C)cc2C)c1 [Example 100, Methyl 3-[(4-{[3-(2,6-dichlorophenyl)-5-isopropylisoxazol-4-yl]methoxy}-2-methyl-phenoxy)methyl]benzoate] | 102 to 1000 nM |
| COC(=O)c1cccc(S(=O)(=O)Nc2ccc(OCc3c(-c4c(Cl)cccc4Cl)noc3C(C)C)cc2)c1 [Example 38, Methyl 3-{[(4-{[3-(2,6-dichlorophenyl)-5-isopropylisoxazol-4yl]methoxy}phenyl)amino]-sulfonyl}benzoate] | 102 to 1000 nM |
| Cc1cc(OCc2c(-c3ccccc3OC(F)(F)F)noc2C(C)C)ccc1COc1cccc(C(=O)O)c1 [Example 86, 3-{[4-({5-Isopropyl-3-[2-(trifluoromethoxy)phenyl]isoxazol-4-yl}methoxy)-2-methyl-benzyl]oxy}benzoic acid] | 102 to 1000 nM |
| CC(C)c1onc(-c2c(Cl)cccc2Cl)c1COc1ccc(CSc2ccc(C(=O)O)cc2)c(Cl)c1 [Example 82, 4-[(2-Chloro-{[3-(2,6-dichlorophenyl)-5-isopropylisoxazol-4-yl]methoxy}benzyl)thio]-benzoic acid] | 102 to 1000 nM |
| COC(=O)c1ccc(CN(C)c2ccc(OCc3c(-c4ccccc4OC(F)(F)F)noc3C(C)C)cc2C)cc1 [Example 22, Methyl 4-{[4-({5-isopropyl-3-[2-(trifluoromethoxy)phenyl]-4-isoxazolyl}methoxy)-2-dimethylanilino]methyl}benzoate] | 102 to 1000 nM |
| COC(=O)c1ccc(S(=O)(=O)Nc2ccc(OCc3c(-c4c(Cl)cccc4Cl)noc3C(C)C)cc2C)cc1 [Example 54, Methyl 4-{[(4-{[3-(2,6-dichlorophenyl)-5-isopropylisoxazol-4-yl]methoxy}-2-methyl-phenyl)amino]sulfonyl}benzoate] | < 100 nM |
| Cc1cc(OCc2c(Cc3ccccc3Cl)noc2C(C)C)ccc1N(C)Cc1cccc(C(=O)O)c1 [Example 16, 3-{[(4-{[3-(2-Chlorobenzyl)-5-isopropylisoxazol-4-yl]methoxy}-2-methylphenyl)(methyl)-amino]methyl}benzoic acid] | 102 to 1000 nM |
| CC(C)c1onc(-c2ccccc2OC(F)(F)F)c1COc1ccc(CSc2cccc(C(=O)O)c2)c(Cl)c1 [Example 90, 3-{[2-Chloro-4-({5-isopropyl-3-[2-(trifluoromethoxy)phenyl]isoxazol-4-yl}methoxy)-benzyl]thio}benzoic acid] | 102 to 1000 nM |
| COC(=O)c1ccc(OCc2ccc(OCc3c(-c4c(Cl)cccc4Cl)noc3C(C)C)cc2Cl)cc1 [Example 75, Methyl 4-[(2-chloro-4-{[3-(2,6-dichlorophenyl)-5-isopropylisoxazol-4-yl]methoxy}benzyl)oxy]benzoate] | 102 to 1000 nM |
| COC(=O)c1cccc(C(=O)Nc2ccc(OCc3c(-c4c(Cl)cccc4Cl)noc3C(C)C)cc2Cl)c1 [Example 24, Methyl 3-[(2-chloro-4-{[3-(2,6-dichlorophenyl)-5-isopropyl-4-isoxazolyl]methoxy}anilino)carbonyl]benzoate] | 102 to 1000 nM |
| CCc1onc(Cc2c(Cl)cccc2Cl)c1COc1ccc(COc2cccc(C(=O)O)c2)c(Cl)c1 [Example 87, 3-[(2-Chloro-4-{[3-(2,6-dichlorobenzyl)-5-ethylisoxazol-4-yl]methoxy}benzyl)oxy]benzoic acid] | 102 to 1000 nM |
| Cc1cc(OCc2c(-c3c(Cl)cccc3Cl)noc2C(C)C)ccc1N(C)Cc1cccc(CO)c1 [Example 11, {3-[(4-{[3-(2,6-Dichlorophenyl)-5-isopropyl-4-isoxazolyl]methoxy}-2-dimethylanilino)methyl]phenyl}methanol] | < 100 nM |
| Cc1cc(OCc2c(-c3c(Cl)cccc3Cl)noc2C(C)C)ccc1N(C)Cc1ccc2nonc2c1 [Example 7, N-(2,1,3-Benzoxadiazol-5-ylmethyl)-4-{[3-(2,6-dichlorophenyl)-5-isopropyl-4-isoxazolyl]methoxy}-N,2-dimethylaniline] | 102 to 1000 nM |
| COC(=O)c1ccc(S(=O)(=O)N(C)c2ccc(OCc3c(-c4c(Cl)cccc4Cl)noc3C(C)C)cc2)cc1 [Example 60, Methyl 4-{[(4-{[3-(2,6-dichlorophenyl)-5-isopropylisoxazol-4-yl]methoxy}phenyl)-(methyl)amino]sulfonyl}benzoate] | 1020 to 10000 nM |
| COC(=O)c1cccc(S(=O)(=O)Nc2ccc(OCc3c(-c4c(Cl)cccc4Cl)noc3C(C)C)cc2C)c1 [Example 37, Methyl 3-{[1(4-{[3-(2,6-dichlorophenyl)-5-isopropylisoxazol-4-yl]methoxy}-2-methylphenyl)amino]sulfonyl}benzoate] | 102 to 1000 nM |
| CCN(c1ccc(OCc2c(-c3c(Cl)cccc3Cl)noc2C(C)C)cc1C)S(=O)(=O)c1ccc(C(=O)O)cc1 [Example 66, 4-{[(4-{[3-(2,6-Dichlorophenyl)-5-isopropylisoxazol-4-yl]methoxy}-2-methylphenyl)-(ethyl)amino]sulfonyl}benzoic acid] | 102 to 1000 nM |
| COC(=O)c1cccc(SCc2ccc(OCc3c(-c4ccccc4OC(F)(F)F)noc3C(C)C)cc2Cl)c1 [Example 88, Methyl 3-{[2-chloro-4-({5-isopropyl-3-[2-(trifluoro-methoxy)phenyl]isoxazol-4-yl}methoxy)benzyl]thio}benzoate] | 102 to 1000 nM |
| COC(=O)c1ccc(C(=O)Nc2ccc(OCc3c(-c4c(Cl)cccc4Cl)noc3C(C)C)cc2Cl)cc1 [Example 25, Methyl 4-[(2-chloro-4-{[3-(2,6-dichlorophenyl)-5-isopropyl-4-isoxazolyl]methoxy}anilino)carbonyl]benzoate] | 102 to 1000 nM |
| CCc1onc(Cc2c(Cl)cccc2Cl)c1COc1ccc(N(C)Cc2cccc(C(=O)O)c2)c(C)c1 [Example 13, 3-[(4-{[3-(2,6-Dichlorobenzyl)-5-ethyl-4-isoxazolyl]methoxy}-2-dimethylanilino)methyl]benzoic acid] | 102 to 1000 nM |
| CC(C)c1onc(-c2c(Cl)cccc2Cl)c1COc1ccc(NC(=O)c2cccc(C(=O)O)c2)c(Cl)c1 [Example 28, 3-[(2-Chloro-4-{[3-(2,6-dichlorophenyl)-5-isopropyl-4-isoxazolyl]methoxy}anilino)carbonyl]benzoic acid] | 102 to 1000 nM |
| Cc1cc(OCc2c(-c3ccccc3OC(F)(F)F)noc2C(C)C)ccc1CSc1cccc(C(=O)O)c1 [Example 91, 3-{[4-({5-Isopropyl-3-[2-(trifluoromethoxy)phenyl]isoxazol-4-yl}methoxy)-2-methyl-benzyl]thio}benzoic acid] | 102 to 1000 nM |
